From PubChem BioAssay (NCI)
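Grown in 96-well plates, cells were treated for 48 hours with each compound at five concentrations. Insufficient inhibition: endpoint recorded as highest concentration tested. TGI: total growth inhibition.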

What was measured:
Assay in all cases: NCI anticancer screen, dose series, 48 h
RPMI-8226 leukemia = system: RPMI-8226 leukemia
MDA-MB-231 breast = system: MDA-MB-231 breast
SK-MEL-2 melanoma = system: SK-MEL-2 melanoma
NCI-H522 lung = system: NCI-H522 lung
NCI/ADR-RES ovarian = system: NCI/ADR-RES ovarian
NCI-H460 lung = system: NCI-H460 lung
UACC-62 melanoma = system: UACC-62 melanoma
SW-620 colon = system: SW-620 colon
K-562 leukemia = system: K-562 leukemia
HL-60(TB) leukemia = system: HL-60(TB) leukemia
OVCAR-5 ovarian = system: OVCAR-5 ovarian
SF-268 CNS = system: SF-268 CNS
SK-MEL-28 melanoma = system: SK-MEL-28 melanoma
HOP-62 NSCLC = system: HOP-62 NSCLC
MDA-MB-435 = system: MDA-MB-435
A498 renal = system: A498 renal
A549 NSCLC = system: A549 NSCLC
LOX IMVI melanoma = system: LOX IMVI melanoma
SK-OV-3 ovarian = system: SK-OV-3 ovarian
TK-10 renal = system: TK-10 renal
SF-295 CNS = system: SF-295 CNS
UACC-257 melanoma = system: UACC-257 melanoma
ACHN renal = system: ACHN renal
OVCAR-4 ovarian = system: OVCAR-4 ovarian
SNB-75 CNS = system: SNB-75 CNS
T-47D breast = system: T-47D breast
MALME-3M melanoma = system: MALME-3M melanoma
OVCAR-3 ovarian = system: OVCAR-3 ovarian
CAKI-1 renal = system: CAKI-1 renal
M14 melanoma = system: M14 melanoma
CCRF-CEM leukemia = system: CCRF-CEM leukemia
IGROV1 ovarian = system: IGROV1 ovarian
MOLT-4 leukemia = system: MOLT-4 leukemia
DU-145 prostate = system: DU-145 prostate
EKVX NSCLC = system: EKVX NSCLC
SF-539 CNS = system: SF-539 CNS
PC-3 prostate = system: PC-3 prostate
NCI-H23 lung = system: NCI-H23 lung
KM12 colon = system: KM12 colon
RXF 393 renal = system: RXF 393 renal
MDA-N = system: MDA-N
SN12C renal = system: SN12C renal
NCI-H226 lung = system: NCI-H226 lung
HT29 colon = system: HT29 colon
SNB-19 CNS = system: SNB-19 CNS
MCF7 breast = system: MCF7 breast
HCC-2998 colon = system: HCC-2998 colon
HCT-116 colon = system: HCT-116 colon
UO-31 renal = system: UO-31 renal
COLO 205 colon = system: COLO 205 colon
786-0 renal = system: 786-0 renal
OVCAR-8 ovarian = system: OVCAR-8 ovarian
HCT-15 colon = system: HCT-15 colon
SK-MEL-5 melanoma = system: SK-MEL-5 melanoma
HS 578T breast = system: HS 578T breast
U251 CNS = system: U251 CNS
BT-549 breast = system: BT-549 breast

## COc1ccc(C[C@H]2NC(=O)/C=C/C[C@@H]([C@H](C)[C@H]3O[C@@H]3c3ccccc3)OC(=O)[C@H](CC(C)C)OC(=O)[C@H](C)CNC2=O)cc1
RPMI-8226 leukemia
  TGI: > 0.1 nM
MDA-MB-231 breast
  TGI: > 0.0879 nM
SK-MEL-2 melanoma
  TGI: > 0.1 nM
NCI-H522 lung
  TGI: > 0.1 nM
NCI/ADR-RES ovarian
  TGI: > 0.1 nM
NCI-H460 lung
  TGI: > 0.1 nM
UACC-62 melanoma
  TGI: 0.0338 nM
SW-620 colon
  TGI: > 0.1 nM
K-562 leukemia
  TGI: > 0.0813 nM
HL-60(TB) leukemia
  TGI: 0.052 nM
OVCAR-5 ovarian
  TGI: > 0.1 nM
SF-268 CNS
  TGI: > 0.1 nM
SK-MEL-28 melanoma
  TGI: > 0.1 nM
HOP-62 NSCLC
  TGI: > 0.0745 nM
MDA-MB-435
  TGI: 0.0145 nM
A498 renal
  TGI: 0.0837 nM
A549 NSCLC
  TGI: > 0.1 nM
LOX IMVI melanoma
  TGI: > 0.1 nM
SK-OV-3 ovarian
  TGI: > 0.1 nM
TK-10 renal
  TGI: > 0.1 nM
SF-295 CNS
  TGI: > 0.0684 nM
UACC-257 melanoma
  TGI: > 0.1 nM
ACHN renal
  TGI: > 0.1 nM
OVCAR-4 ovarian
  TGI: > 0.1 nM
SNB-75 CNS
  TGI: > 0.0919 nM
T-47D breast
  TGI: > 0.1 nM
MALME-3M melanoma
  TGI: > 0.1 nM
OVCAR-3 ovarian
  TGI: > 0.1 nM
CAKI-1 renal
  TGI: > 0.1 nM
M14 melanoma
  TGI: 0.0684 nM
CCRF-CEM leukemia
  TGI: > 0.0699 nM
IGROV1 ovarian
  TGI: > 0.1 nM
MOLT-4 leukemia
  TGI: > 0.1 nM
DU-145 prostate
  TGI: > 0.0897 nM
EKVX NSCLC
  TGI: > 0.0966 nM
SF-539 CNS
  TGI: 0.0436 nM
PC-3 prostate
  TGI: > 0.1 nM
NCI-H23 lung
  TGI: > 0.0734 nM
KM12 colon
  TGI: > 0.1 nM
RXF 393 renal
  TGI: > 0.0312 nM
MDA-N
  TGI: 0.0232 nM
SN12C renal
  TGI: > 0.1 nM
NCI-H226 lung
  TGI: > 0.0726 nM
HT29 colon
  TGI: > 0.0654 nM
SNB-19 CNS
  TGI: > 0.1 nM
MCF7 breast
  TGI: > 0.1 nM
HCC-2998 colon
  TGI: > 0.1 nM
HCT-116 colon
  TGI: > 0.1 nM
UO-31 renal
  TGI: > 0.1 nM
COLO 205 colon
  TGI: 0.0499 nM
786-0 renal
  TGI: > 0.1 nM
OVCAR-8 ovarian
  TGI: 0.0555 nM
HCT-15 colon
  TGI: > 0.1 nM
SK-MEL-5 melanoma
  TGI: 0.0706 nM
HS 578T breast
  TGI: > 0.0666 nM
U251 CNS
  TGI: > 0.1 nM

## C=CCn1c(-c2ccccc2)cs/c1=N\C(P(=O)(O)O)P(=O)(O)O
MDA-MB-231 breast
  TGI: > 100000 nM
NCI-H522 lung
  TGI: > 100000 nM
NCI/ADR-RES ovarian
  TGI: > 100000 nM
NCI-H460 lung
  TGI: > 100000 nM
UACC-62 melanoma
  TGI: > 100000 nM
OVCAR-5 ovarian
  TGI: > 100000 nM
SF-268 CNS
  TGI: > 100000 nM
HOP-62 NSCLC
  TGI: > 100000 nM
A549 NSCLC
  TGI: > 100000 nM
LOX IMVI melanoma
  TGI: > 100000 nM
SK-OV-3 ovarian
  TGI: > 100000 nM
TK-10 renal
  TGI: > 100000 nM
SF-295 CNS
  TGI: > 100000 nM
UACC-257 melanoma
  TGI: > 100000 nM
ACHN renal
  TGI: > 100000 nM
MALME-3M melanoma
  TGI: > 100000 nM
OVCAR-3 ovarian
  TGI: > 100000 nM
CAKI-1 renal
  TGI: > 100000 nM
M14 melanoma
  TGI: > 100000 nM
IGROV1 ovarian
  TGI: > 100000 nM
DU-145 prostate
  TGI: > 100000 nM
BT-549 breast
  TGI: > 100000 nM
EKVX NSCLC
  TGI: > 100000 nM
SF-539 CNS
  TGI: > 100000 nM
PC-3 prostate
  TGI: > 100000 nM
NCI-H23 lung
  TGI: > 100000 nM
KM12 colon
  TGI: > 100000 nM
RXF 393 renal
  TGI: > 100000 nM
MDA-N
  TGI: > 100000 nM
NCI-H226 lung
  TGI: > 100000 nM
SNB-19 CNS
  TGI: > 100000 nM
MCF7 breast
  TGI: > 100000 nM
HCC-2998 colon
  TGI: > 100000 nM
HCT-116 colon
  TGI: > 100000 nM
UO-31 renal
  TGI: > 100000 nM
COLO 205 colon
  TGI: > 100000 nM
786-0 renal
  TGI: > 100000 nM
HCT-15 colon
  TGI: > 100000 nM
SK-MEL-5 melanoma
  TGI: > 100000 nM
